Results: article PMC10337138 (Acta Neuropathologica Communications, 2023)

Tests used:
Conditions in all cases: 1 mM ATP; inhibitor
[1] = target: EIF2AK3/PEK (Homo sapiens, UniProt Q9NZJ5)
Procedure: (§1) Kinase selectivity panel Kinome profiling was conducted by AssayQuant Technologies (Marlboro, MA) using Sox chromophore technology and Sox-based peptide substrates developed for human kinases in a 384-well format. Compounds were tested at 1 µM in the presence of 1 mM ATP.

[2] = target: RPS6KA5/MSK1 (Homo sapiens, UniProt O75582)
Procedure: as §1

[3] = target: MAP4K1/HPK1 (Homo sapiens, UniProt Q92918)
Procedure: as §1

[4] = target: STK25/YSK1 (Homo sapiens, UniProt O00506)
Procedure: as §1

[5] = target: MAPK7/ERK5 (Homo sapiens, UniProt Q13164)
Procedure: as §1

[6] = target: PRKD3 (Homo sapiens, UniProt O94806)
Procedure: as §1

[7] = target: EPHA5 (Homo sapiens, UniProt P54756)
Procedure: as §1

[8] = target: SGK3 (Homo sapiens, UniProt Q96BR1)
Procedure: as §1

[9] = target: LCK (Homo sapiens, UniProt P06239)
Procedure: as §1

[10] = target: ROCK1 (Homo sapiens, UniProt Q13464)
Procedure: as §1

[11] = target: CAMK1G (Homo sapiens, UniProt Q96NX5)
Procedure: as §1

[12] = target: EPHA6 (Homo sapiens, UniProt Q9UF33)
Procedure: as §1

[13] = target: KDR (Homo sapiens, UniProt P35968)
Procedure: as §1

[14] = target: EIF2AK1/HRI (Homo sapiens, UniProt Q9BQI3)
Procedure: as §1

[15] = target: MAP3K2 (Homo sapiens, UniProt Q9Y2U5)
Procedure: as §1

[16] = target: GRK2 (Homo sapiens, UniProt P25098)
Procedure: as §1

[17] = target: MAP3K1 (Homo sapiens, UniProt Q13233)
Procedure: as §1

[18] = target: CSNK1D/CK1D (Homo sapiens, UniProt P48730)
Procedure: as §1

[19] = target: NEK11 (Homo sapiens, UniProt Q8NG66)
Procedure: as §1

[20] = target: FGR (Homo sapiens, UniProt P09769)
Procedure: as §1

[21] = target: T1, PDHK4 (Homo sapiens, UniProt Q16654)
T1 construct: gene PDK4
Procedure: as §1

[22] = target: PAK5 (Homo sapiens, UniProt Q9P286)
Procedure: as §1

[23] = target: MYLK/MLCK (Homo sapiens, UniProt Q15746)
Procedure: as §1

[24] = target: CSK (Homo sapiens, UniProt P41240)
Procedure: as §1

[25] = target: TYK2(JH1) (Homo sapiens, UniProt P29597)
Procedure: as §1

[26] = target: MAPK3/ERK1 (Homo sapiens, UniProt P27361)
Procedure: as §1

[27] = target: MAP4K2/GCK (Homo sapiens, UniProt Q12851)
Procedure: as §1

[28] = target: INSRR (Homo sapiens, UniProt P14616)
Procedure: as §1

[29] = target: T2, MNK1 (Homo sapiens, UniProt Q9BUB5)
T2 construct: gene MKNK1
Procedure: as §1

[30] = target: MYLK4 (Homo sapiens, UniProt Q86YV6)
Procedure: as §1

[31] = target: CDK4/D3 (Homo sapiens, UniProt P11802)
Procedure: as §1

[32] = target: MAPK15/ERK7 (Homo sapiens, UniProt Q8TD08)
Procedure: as §1

[33] = target: TYK2(JH1JH2) (Homo sapiens, UniProt P29597)
Procedure: as §1

[34] = target: CDK3/E1 (Homo sapiens, UniProt Q00526)
Procedure: as §1

[35] = target: TNIK (Homo sapiens, UniProt Q9UKE5)
Procedure: as §1

[36] = target: PAK1 (Homo sapiens, UniProt Q13153)
Procedure: as §1

[37] = target: KSR2 (Homo sapiens, UniProt Q6VAB6)
Procedure: as §1

[38] = target: PRKCE/PKCE (Homo sapiens, UniProt Q02156)
Procedure: as §1

Chain of GRK2 (P25098 whole entry): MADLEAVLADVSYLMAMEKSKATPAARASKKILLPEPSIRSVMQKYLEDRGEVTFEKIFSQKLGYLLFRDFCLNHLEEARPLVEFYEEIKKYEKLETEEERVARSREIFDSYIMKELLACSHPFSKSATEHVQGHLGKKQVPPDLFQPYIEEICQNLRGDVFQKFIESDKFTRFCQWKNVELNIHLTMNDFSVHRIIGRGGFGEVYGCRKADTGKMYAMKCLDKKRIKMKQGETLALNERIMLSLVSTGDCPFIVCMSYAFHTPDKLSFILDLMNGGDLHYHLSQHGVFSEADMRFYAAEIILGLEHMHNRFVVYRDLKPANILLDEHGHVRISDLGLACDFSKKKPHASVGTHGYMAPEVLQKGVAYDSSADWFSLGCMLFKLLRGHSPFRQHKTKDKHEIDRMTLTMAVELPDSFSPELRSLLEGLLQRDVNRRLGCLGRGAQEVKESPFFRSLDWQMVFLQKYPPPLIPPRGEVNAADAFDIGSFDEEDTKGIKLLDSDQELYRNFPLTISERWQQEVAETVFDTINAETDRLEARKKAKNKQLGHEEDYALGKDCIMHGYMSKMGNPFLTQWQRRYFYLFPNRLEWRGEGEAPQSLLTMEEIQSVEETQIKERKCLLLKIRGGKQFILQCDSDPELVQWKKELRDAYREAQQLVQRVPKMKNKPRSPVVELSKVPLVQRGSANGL
Chain of NEK11 (Q8NG66 whole entry): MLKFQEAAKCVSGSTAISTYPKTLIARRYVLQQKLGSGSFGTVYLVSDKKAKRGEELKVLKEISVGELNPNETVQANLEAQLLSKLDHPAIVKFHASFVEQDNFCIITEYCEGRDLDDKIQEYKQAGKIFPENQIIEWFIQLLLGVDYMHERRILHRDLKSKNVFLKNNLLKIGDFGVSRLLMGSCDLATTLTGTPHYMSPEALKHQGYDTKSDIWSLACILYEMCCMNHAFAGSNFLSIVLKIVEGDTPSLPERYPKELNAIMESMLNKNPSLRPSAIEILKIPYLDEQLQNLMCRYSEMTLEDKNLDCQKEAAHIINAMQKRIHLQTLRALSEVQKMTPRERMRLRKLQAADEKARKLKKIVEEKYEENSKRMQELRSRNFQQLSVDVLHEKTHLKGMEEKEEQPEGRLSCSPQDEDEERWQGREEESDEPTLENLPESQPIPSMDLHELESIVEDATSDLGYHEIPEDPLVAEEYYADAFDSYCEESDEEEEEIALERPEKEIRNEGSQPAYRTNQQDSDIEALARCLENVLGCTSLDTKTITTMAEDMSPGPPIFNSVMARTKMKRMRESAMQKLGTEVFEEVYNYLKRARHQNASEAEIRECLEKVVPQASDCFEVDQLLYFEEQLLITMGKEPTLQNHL
Chain of CDK3/E1 (P24864 whole entry): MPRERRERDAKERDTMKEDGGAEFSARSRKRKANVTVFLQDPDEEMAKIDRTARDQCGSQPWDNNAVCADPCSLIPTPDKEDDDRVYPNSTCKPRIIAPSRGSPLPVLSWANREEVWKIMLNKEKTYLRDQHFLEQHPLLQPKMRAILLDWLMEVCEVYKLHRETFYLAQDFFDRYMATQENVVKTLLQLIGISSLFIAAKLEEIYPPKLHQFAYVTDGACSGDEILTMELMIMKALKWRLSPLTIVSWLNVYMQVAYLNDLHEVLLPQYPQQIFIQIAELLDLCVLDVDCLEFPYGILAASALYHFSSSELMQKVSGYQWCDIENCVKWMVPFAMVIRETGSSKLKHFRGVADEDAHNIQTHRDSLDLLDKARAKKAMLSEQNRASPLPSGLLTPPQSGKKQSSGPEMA
Chain of CDK3/E1 (Q00526 whole entry): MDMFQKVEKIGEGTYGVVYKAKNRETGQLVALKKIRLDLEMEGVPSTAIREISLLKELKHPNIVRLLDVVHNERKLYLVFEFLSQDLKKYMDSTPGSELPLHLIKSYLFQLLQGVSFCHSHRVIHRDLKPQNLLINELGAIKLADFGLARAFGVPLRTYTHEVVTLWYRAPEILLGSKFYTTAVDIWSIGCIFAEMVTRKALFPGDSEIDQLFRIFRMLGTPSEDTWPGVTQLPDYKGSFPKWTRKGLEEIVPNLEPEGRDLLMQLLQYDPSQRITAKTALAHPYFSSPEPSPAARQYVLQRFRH
Chain of KSR2 (Q6VAB6 whole entry): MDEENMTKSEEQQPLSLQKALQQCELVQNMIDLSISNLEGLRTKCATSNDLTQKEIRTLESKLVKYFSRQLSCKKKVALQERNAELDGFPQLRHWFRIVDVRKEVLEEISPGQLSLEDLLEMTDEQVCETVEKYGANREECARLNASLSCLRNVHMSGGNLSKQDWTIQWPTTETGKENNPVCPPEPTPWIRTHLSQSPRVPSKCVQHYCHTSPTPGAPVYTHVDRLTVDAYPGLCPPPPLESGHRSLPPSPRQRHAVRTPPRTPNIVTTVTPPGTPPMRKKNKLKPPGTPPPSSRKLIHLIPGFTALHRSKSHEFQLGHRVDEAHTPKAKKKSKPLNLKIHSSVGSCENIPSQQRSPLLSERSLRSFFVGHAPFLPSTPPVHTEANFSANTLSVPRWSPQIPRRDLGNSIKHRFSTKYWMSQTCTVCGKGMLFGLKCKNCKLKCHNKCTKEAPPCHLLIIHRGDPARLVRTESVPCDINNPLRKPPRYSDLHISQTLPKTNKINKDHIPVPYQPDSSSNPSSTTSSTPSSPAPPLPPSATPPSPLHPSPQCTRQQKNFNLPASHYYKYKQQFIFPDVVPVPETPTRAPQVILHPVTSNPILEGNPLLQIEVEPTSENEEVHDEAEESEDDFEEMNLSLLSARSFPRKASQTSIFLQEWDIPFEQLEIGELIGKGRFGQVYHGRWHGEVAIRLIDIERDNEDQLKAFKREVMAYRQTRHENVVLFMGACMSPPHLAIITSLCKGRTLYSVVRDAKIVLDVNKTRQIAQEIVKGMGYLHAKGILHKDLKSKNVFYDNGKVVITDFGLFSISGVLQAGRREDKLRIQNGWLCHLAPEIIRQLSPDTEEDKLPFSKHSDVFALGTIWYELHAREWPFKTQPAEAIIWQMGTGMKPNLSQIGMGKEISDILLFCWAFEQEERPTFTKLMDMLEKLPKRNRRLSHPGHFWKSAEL
Chain of EIF2AK1/HRI (Q9BQI3 whole entry): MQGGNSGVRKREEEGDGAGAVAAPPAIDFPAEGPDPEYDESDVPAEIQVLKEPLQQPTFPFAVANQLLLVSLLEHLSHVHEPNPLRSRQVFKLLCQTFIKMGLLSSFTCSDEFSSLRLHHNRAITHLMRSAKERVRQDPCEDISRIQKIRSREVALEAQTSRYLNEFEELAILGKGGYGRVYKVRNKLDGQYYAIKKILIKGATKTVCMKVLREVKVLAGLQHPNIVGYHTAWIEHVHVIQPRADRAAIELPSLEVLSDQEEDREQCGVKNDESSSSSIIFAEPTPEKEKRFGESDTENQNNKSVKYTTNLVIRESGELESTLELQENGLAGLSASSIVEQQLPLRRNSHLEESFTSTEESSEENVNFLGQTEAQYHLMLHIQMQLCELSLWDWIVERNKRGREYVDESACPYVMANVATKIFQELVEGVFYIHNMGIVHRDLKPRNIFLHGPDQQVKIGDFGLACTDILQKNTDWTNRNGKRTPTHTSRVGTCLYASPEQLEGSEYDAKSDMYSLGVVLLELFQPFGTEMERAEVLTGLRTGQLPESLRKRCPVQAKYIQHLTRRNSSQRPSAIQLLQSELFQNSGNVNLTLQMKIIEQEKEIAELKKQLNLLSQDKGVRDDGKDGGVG
Chain of PRKCE/PKCE (Q02156 whole entry): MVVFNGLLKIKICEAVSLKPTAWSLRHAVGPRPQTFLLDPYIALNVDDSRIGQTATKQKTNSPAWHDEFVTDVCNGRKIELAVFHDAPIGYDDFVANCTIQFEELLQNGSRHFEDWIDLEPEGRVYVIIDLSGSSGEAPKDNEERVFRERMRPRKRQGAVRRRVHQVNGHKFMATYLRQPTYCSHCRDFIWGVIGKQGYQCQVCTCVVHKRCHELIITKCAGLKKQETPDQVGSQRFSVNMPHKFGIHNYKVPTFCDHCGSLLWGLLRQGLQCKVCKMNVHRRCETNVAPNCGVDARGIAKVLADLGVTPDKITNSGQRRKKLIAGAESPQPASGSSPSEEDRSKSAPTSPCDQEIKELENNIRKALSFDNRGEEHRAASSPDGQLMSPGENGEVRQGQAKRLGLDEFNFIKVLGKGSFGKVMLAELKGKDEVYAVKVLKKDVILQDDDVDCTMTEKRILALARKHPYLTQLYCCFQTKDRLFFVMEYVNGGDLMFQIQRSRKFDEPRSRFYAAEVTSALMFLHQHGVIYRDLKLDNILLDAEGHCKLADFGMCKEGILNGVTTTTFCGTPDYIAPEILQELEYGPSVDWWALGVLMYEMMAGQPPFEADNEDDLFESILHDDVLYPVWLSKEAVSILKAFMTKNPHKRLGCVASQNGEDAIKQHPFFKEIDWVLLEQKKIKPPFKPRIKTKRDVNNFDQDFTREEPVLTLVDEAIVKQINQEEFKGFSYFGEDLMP
Chain of MAP3K2 (Q9Y2U5 whole entry): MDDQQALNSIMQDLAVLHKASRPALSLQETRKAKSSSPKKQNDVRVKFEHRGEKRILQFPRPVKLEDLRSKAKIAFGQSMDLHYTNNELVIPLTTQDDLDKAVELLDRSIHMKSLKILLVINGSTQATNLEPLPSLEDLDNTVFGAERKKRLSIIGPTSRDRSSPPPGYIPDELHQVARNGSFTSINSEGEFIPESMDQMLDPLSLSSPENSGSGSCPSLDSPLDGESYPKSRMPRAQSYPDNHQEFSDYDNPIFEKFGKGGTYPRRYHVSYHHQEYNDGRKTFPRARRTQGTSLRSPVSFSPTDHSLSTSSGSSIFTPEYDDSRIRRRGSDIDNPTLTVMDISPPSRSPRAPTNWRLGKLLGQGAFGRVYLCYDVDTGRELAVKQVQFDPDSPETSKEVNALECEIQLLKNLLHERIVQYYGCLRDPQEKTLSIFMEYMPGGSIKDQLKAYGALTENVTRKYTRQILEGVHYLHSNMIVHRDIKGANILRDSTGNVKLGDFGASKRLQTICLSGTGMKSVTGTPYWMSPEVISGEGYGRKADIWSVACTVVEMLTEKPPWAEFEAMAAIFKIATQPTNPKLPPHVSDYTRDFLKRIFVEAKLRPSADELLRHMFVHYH

For C=CC(=O)N1CCC[C@@H](n2nc(-c3ccc(Oc4ccccc4)cc3)c3c(N)ncnc32)C1 [Ibrutinib], the “1 µM GBD00276 (ibrutinib), % inhibition” value [1] was -3.047%, the “1 µM GBD00276 (ibrutinib), % inhibition” value [2] was -5.427% and the “1 µM GBD00276 (ibrutinib), % inhibition” value [3] was 8.34%. The “1 µM GBD00276 (ibrutinib), % inhibition” value [4] was 10.23%, the “1 µM GBD00276 (ibrutinib), % inhibition” value [5] was -0.1217% and the “1 µM GBD00276 (ibrutinib), % inhibition” value [6] was 1.376%. For the same compound, the “1 µM GBD00276 (ibrutinib), % inhibition” value [7] was -3.884%, the “1 µM GBD00276 (ibrutinib), % inhibition” value [8] was 7.387% and the “1 µM GBD00276 (ibrutinib), % inhibition” value [9] was 75.25%. The “1 µM GBD00276 (ibrutinib), % inhibition” value [10] was 3.894%, the “1 µM GBD00276 (ibrutinib), % inhibition” value [11] was 11.1875% and the “1 µM GBD00276 (ibrutinib), % inhibition” value [12] was 17.71%. The “1 µM GBD00276 (ibrutinib), % inhibition” value [13] was 29.01%, the “1 µM GBD00276 (ibrutinib), % inhibition” value [14] was -3.537% and the “1 µM GBD00276 (ibrutinib), % inhibition” value [15] was 6.175%. For the same compound, the “1 µM GBD00276 (ibrutinib), % inhibition” value [16] was 3.639%, the “1 µM GBD00276 (ibrutinib), % inhibition” value [17] was -9.45% and the “1 µM GBD00276 (ibrutinib), % inhibition” value [18] was 12.82%. The “1 µM GBD00276 (ibrutinib), % inhibition” value [19] was -9.805%, the “1 µM GBD00276 (ibrutinib), % inhibition” value [20] was 56.77% and the “1 µM GBD00276 (ibrutinib), % inhibition” value [21] was -54.44%. The “1 µM GBD00276 (ibrutinib), % inhibition” value [22] was 14.25%, the “1 µM GBD00276 (ibrutinib), % inhibition” value [23] was -5.288% and the “1 µM GBD00276 (ibrutinib), % inhibition” value [24] was 61.63%. For the same compound, the “1 µM GBD00276 (ibrutinib), % inhibition” value [25] was 12.87%, the “1 µM GBD00276 (ibrutinib), % inhibition” value [26] was 2.161% and the “1 µM GBD00276 (ibrutinib), % inhibition” value [27] was 1.626%. For the same compound, the “1 µM GBD00276 (ibrutinib), % inhibition” value [28] was 19.45%, the “1 µM GBD00276 (ibrutinib), % inhibition” value [29] was -4.408% and the “1 µM GBD00276 (ibrutinib), % inhibition” value [30] was 6.189%. For the same compound, the “1 µM GBD00276 (ibrutinib), % inhibition” value [31] was 7.114%, the “1 µM GBD00276 (ibrutinib), % inhibition” value [32] was -6.367% and the “1 µM GBD00276 (ibrutinib), % inhibition” value [33] was -13.3%. For the same compound, the “1 µM GBD00276 (ibrutinib), % inhibition” value [34] was 0.5426%, the “1 µM GBD00276 (ibrutinib), % inhibition” value [35] was -56.63% and the “1 µM GBD00276 (ibrutinib), % inhibition” value [36] was 16.51%. For the same compound, the “1 µM GBD00276 (ibrutinib), % inhibition” value [37] was 3.265% and the “1 µM GBD00276 (ibrutinib), % inhibition” value [38] was -10.08%.
